From patent US5488051A, “Substituted 5,6-dihydro-5-oxo-1,4-dithiino-(2,3-d)-pyridazine-2,3-dicarbonitriles, compositions containing them and their use as antimicrobials” (The Dow Chemical Company, priority 1994, dated 1996) come the findings set out here.

In assay [1] the test system is Klebsiella pneumonias (Kp). Nature of the assay: MIC for Klebsiella pneumonias, nutrient agar. The format is cell-based, Klebsiella pneumonias ATCC 8308. Particulars: 30° C., 48 hours, read-out: Minimum Inhibitory Concentration (MIC), Kp. A digest of the protocol:
(§1)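 Growth inhibition scored visually after 48 h at 30° C on nutrient agar plates (pH 6.8 and pH 8.2) into which compound had been incorporated at 0–500 ppm final. Inocula of 10^8 CFU/mL were applied by replicator.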

For assay [2], the system named is Proteus vulgaris (Pv). The experiment in a line: MIC for Proteus vulgaris, nutrient agar. The format is cell-based, Proteus vulgaris ATCC 881. Particulars: 30° C., 48 hours, read-out: Minimum Inhibitory Concentration (MIC), Pv. The method in brief: as §1
The test system of assay [3] is Pseudomonas aeruginosa (Pa). The experiment in a line: MIC for Pseudomonas aeruginosa, nutrient agar. It is filed as cell-based, Pseudomonas aeruginosa ATCC 10145. Particulars: 48 hours, read-out: Minimum Inhibitory Concentration (MIC), Pa. The method in brief: as §1
Assay [4] concerns Staphylococcus aureus (Sa). The experiment in a line: MIC for Staphylococcus aureus, nutrient agar. The format is cell-based, Staphylococcus aureus ATCC 6538. Conditions: 30° C., 48 hours, read-out: Minimum Inhibitory Concentration (MIC), Sa. The method in brief:
as §1

The test system of assay [5] is Candida albicans (Ca). The experiment in a line: MIC for Candida albicans, malt yeast agar. The format is cell-based, Candida albicans ATCC 10231. Conditions: malt yeast agar; 30° C., 48 hours for yeast; read-out: Minimum Inhibitory Concentration (MIC), Ca. A digest of the protocol:
(§2)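 Agar dilution on malt yeast agar with compound (from 1% acetone/water solution) at final 0, 1.0, 2.5, 5, 10, 25, 50, 100, 250, 500 ppm. Plates inoculated by replicator with saline suspensions (1:9 diluted) of 7-day cultures; incubated at 30 °C, read at 48 h for yeast and 72 h for fungi.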

For assay [6], the system named is Trichoderma viride (Tv). The experiment in a line: MIC for Trichoderma viride, malt yeast agar. The format is cell-based, Trichoderma viride ATCC 8678. Particulars: malt yeast agar; 30° C., 72 hours for fungi; read-out: Minimum Inhibitory Concentration (MIC), Tv. The method in brief: as §2

Each structure is given as a SMILES string. Values after ≈ are worked out from the molar mass of the structure shown. Read-outs that look alike come from different tables or passages of the source. A value given as a limit tells only on which side of the number the result lay.

`Cc1ccc(-n2ncc3c(c2=O)SC(C#N)=C(C#N)S3)cc1` [B, 5,6-dihydro-6-(4-methylphenyl)-5-oxo-1,4-dithiino-(2,3-d)-pyridazine-2,3-dicarbonitrile]: the MIC in assay [1] (pH 6.8, nutrient agar) is 50 µg/mL (≈ 154 µM); in assay [1] (pH 8.2, nutrient agar), > 500 µg/mL; in assay [2] (pH 6.8, nutrient agar), 500 µg/mL (≈ 1540 µM); in assay [2] (pH 8.2, nutrient agar) it was > 500 µg/mL; in assay [3] (pH 6.8, 30° C.), > 500 µg/mL; in assay [3] (pH 8.2, 30° C.) it was > 500 µg/mL. In addition, the MIC in assay [4] (pH 6.8, nutrient agar) was < 10 µg/mL; in assay [4] (pH 8.2, nutrient agar) it was 25 µg/mL (≈ 77.1 µM); in assay [5], < 10 µg/mL; in assay [6], 25 µg/mL (≈ 77.1 µM).
As to `N#CC1=C(C#N)Sc2c(cnn(-c3ccc(Br)cc3)c2=O)S1` [C, 5,6-dihydro-6-(4-bromophenyl)-5-oxo-1,4-dithiino-(2,3-d)-pyridazine-2,3-dicarbonitrile], the MIC in assay [1] (pH 6.8, nutrient agar) was > 500 µg/mL; in assay [1] (pH 8.2, nutrient agar) it was > 500 µg/mL; in assay [2] (pH 6.8, nutrient agar) it was 250 µg/mL (≈ 642 µM); in assay [2] (pH 8.2, nutrient agar) it was > 500 µg/mL; in assay [3] (pH 6.8, 30° C.), > 500 µg/mL; in assay [3] (pH 8.2, 30° C.), > 500 µg/mL. Also, the MIC in assay [4] (pH 6.8, nutrient agar) was > 500 µg/mL; in assay [4] (pH 8.2, nutrient agar) it was > 500 µg/mL; in assay [5], 10 µg/mL (≈ 25.7 µM); in assay [6], 25 µg/mL (≈ 64.2 µM).
